Data from patent US20240417410A1, “TRICYCLIC COMPOUNDS FOR THE TREATMENT OF CANCER” (Hoffmann-La Roche Inc., priority 2023, published 2024).
Where two headings read alike, the source gives them in different places.

How the values were obtained:
Experiment in all cases: Cell proliferation, CTG 3D, 7 d
Type in all cases: cell-based
[1] = system: Mino; conditions: Homo sapiens
Procedure, shortened: (§1)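 Seven-day 3D growth assay in low-adhesion round-bottom plates, 37° C, 5% CO2. Compound given at 9 concentrations, 3-fold apart. CellTiter-Glo 3D read-out gave the relative IC50.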

[2] = system: UMC-11; conditions: Homo sapiens; UMC-11, KRAS (WT ampl)
Procedure, shortened: as §1

[3] = system: SW620; conditions: Homo sapiens, SW-620; SW620, KRAS (G12V)
Procedure, shortened: as §1

[4] = system: HAL-01; conditions: Homo sapiens
Procedure, shortened: as §1

[5] = system: NCI-H23; conditions: Homo sapiens; NCI-H23, KRAS (G12C)
Procedure, shortened: as §1

[6] = system: T24; conditions: Homo sapiens, T-24; T24, HRAS (p.G12V)
Procedure, shortened: as §1

[7] = system: KNS-62; conditions: Homo sapiens
Procedure, shortened: as §1

[8] = system: SK-LU-1; conditions: Homo sapiens; SK-LU-1, KRAS (G12D)
Procedure, shortened: as §1

[9] = system: LoVo; conditions: Homo sapiens
Procedure, shortened: as §1

[10] = system: SW 480; conditions: Homo sapiens, SW480; SW 480, KRAS (G12V)
Procedure, shortened: as §1

[11] = system: TT; conditions: Homo sapiens, KRAS (WT ampl)
Procedure, shortened: as §1

[12] = system: T84; conditions: Homo sapiens
Procedure, shortened: as §1

[13] = system: TYK-nu; conditions: Homo sapiens
Procedure, shortened: as §1

[14] = system: SW 1990; conditions: Homo sapiens, SW1990; SW 1990, KRAS (G12D)
Procedure, shortened: as §1

[15] = system: NCI-H838; conditions: Homo sapiens; NCI-H838, KRAS (WT ampl)
Procedure, shortened: as §1

[16] = system: HEC-1-A; conditions: Homo sapiens, KRAS (G12D)
Procedure, shortened: as §1

[17] = system: MM.1S; conditions: Homo sapiens, MM1.S
Procedure, shortened: as §1

[18] = system: SK-N-SH; conditions: Homo sapiens
Procedure, shortened: as §1

[19] = system: RERF-LC-Ad1; conditions: Homo sapiens
Procedure, shortened: as §1

[20] = system: SK-N-AS; conditions: Homo sapiens
Procedure, shortened: as §1

[21] = system: LS513; conditions: Homo sapiens, LS-513; LS513, KRAS (G12D)
Procedure, shortened: as §1

[22] = system: Panc 02.03; conditions: Homo sapiens; Panc 02.03, KRAS (G12D)
Procedure, shortened: as §1

[23] = system: GAK; conditions: Homo sapiens
Procedure, shortened: as §1

[24] = system: LS1034; conditions: Homo sapiens, LS-1034
Procedure, shortened: as §1

[25] = system: HuT 78; conditions: Homo sapiens, HuT78
Procedure, shortened: as §1

[26] = system: NCI-H1944; conditions: Homo sapiens
Procedure, shortened: as §1

[27] = system: MOLT-4; conditions: Homo sapiens; MOLT-4, NRAS (p.G12C)
Procedure, shortened: as §1

[28] = system: GP2d; conditions: Homo sapiens, KRAS (G12D)
Procedure, shortened: as §1

In the case of CO[C@@H](C)c1ncc(N2CCN(C)CC2)cc1-c1c2c3cc(cc4c3n1CCC4)-c1csc(n1)C[C@H](NC(=O)[C@H]1[C@H](C)[C@@H]1C)C(=O)N1CCC[C@H](N1)C(=O)OCC(C)(C)C2 (atropisomer, axis not shown; (M)) [Example 24, (1r,2R,3S)-N-[(7S,13S)-(20M)-20-[2-[(1S)-1-methoxyethyl]-5-(4-methylpiperazin-1-yl)-3-pyridyl]-17,17-dimethyl-8,14-dioxo-15-oxa-4-thia-9,21,30,31-tetrazahexacyclo[23.3.1.1^2,5.1^9,13.0^19,27.0^21,26]hentriaconta-1 (28),2,5 (31), 19,25 (29),26-hexaen-7-yl]-2,3-dimethyl-cyclopropanecarboxamide], the IC50 ([1]; Mino, NRAS (p.G13D), read-out: IC50) is reported as 3.8 nM, the IC50 [2] is reported as 100 nM and the IC50 [3] is reported as 0.1 nM. The IC50 ([4]; HAL-01, NRAS (p.G12S), read-out: IC50) was 13 nM, the IC50 [5] was 0.17 nM and the IC50 [6] was 0.3 nM. It also gave an IC50 ([7]; KNS-62, HRAS (p.Q61L), read-out: IC50) of 2.6 nM, an IC50 [8] of 0.5 nM and an IC50 ([9]; KRAS (G13D), read-out: IC50) of 0.55 nM. It also gave an IC50 [10] of 1.2 nM, an IC50 [11] of 2.9 nM and an IC50 ([12]; T84, KRAS (G13D), read-out: IC50) of 100 nM. For the same compound, the IC50 ([13]; TYK-nu, NRAS (p.G12D and p.Q61K), read-out: IC50) was 0.34 nM, the IC50 [14] was 1.6 nM and the IC50 [15] was 100 nM. The IC50 [16] was 1.6 nM, the IC50 ([17]; MM.1S, KRAS (G12A), read-out: IC50) was 0.3 nM and the IC50 ([18]; NRAS (p.Q61K), read-out: IC50) was 1000 nM. For the same compound, the IC50 ([19]; RERF-LC-Ad1, KRAS (G12A), read-out: IC50) was 0.3 nM, the IC50 ([20]; NRAS (p.Q61K), read-out: IC50) was 0.47 nM and the IC50 [21] was 0.68 nM. For the same compound, the IC50 [22] was 3.2 nM, the IC50 ([23]; GAK, NRAS (p.Q61L), read-out: IC50) was 10 nM and the IC50 ([24]; LS1034, KRAS (A146T), read-out: IC50) was 12 nM. For the same compound, the IC50 ([25]; HuT 78, NRAS (p.Q61K), read-out: IC50) was 0.3 nM, the IC50 ([26]; NCI-H1944, KRAS (G13D), read-out: IC50) was 1.6 nM and the IC50 [27] was 1000 nM. The IC50 [28] was 0.63 nM.
Compound CCn1c(-c2cc(N3CCN(C)CC3)cnc2[C@H](C)OC)c2c3cc(ccc31)-c1csc(n1)C[C@H](NC(=O)[C@H]1C[C@@H]1C)C(=O)N1CCC[C@H](N1)C(=O)OCC(C)(C)O2 [Example A122, reference compound] has an IC50 ([1]; MINO) of 1000 nM, an IC50 [2] of 100 nM and an IC50 [3] of 0.23 nM. It also gave an IC50 ([4]; HAL-01) of 14 nM, an IC50 [5] of 0.33 nM and an IC50 [6] of 0.57 nM. It also gave an IC50 ([7]; KNS-62) of 6.4 nM, an IC50 [8] of 0.56 nM and an IC50 [9] of 0.36 nM. For the same compound, the IC50 [10] was 2 nM, the IC50 [11] was 5.9 nM and the IC50 ([12]; T84) was 100 nM. It also gave an IC50 [13] of 0.68 nM, an IC50 [14] of 1.5 nM and an IC50 [15] of 100 nM. It also gave an IC50 [16] of 1.9 nM, an IC50 [17] of 0.55 nM and an IC50 [18] of 580 nM. The IC50 [19] was 0.22 nM, the IC50 [20] was 1.9 nM and the IC50 [21] was 0.47 nM. For the same compound, the IC50 [22] was 5.2 nM, the IC50 [23] was 19 nM and the IC50 [24] was 7.3 nM. For the same compound, the IC50 [25] was 0.55 nM, the IC50 ([26]; NCI-H1944) was 1.7 nM and the IC50 [27] was 1000 nM. The IC50 [28] was 0.55 nM.
